Experimental findings from article PMC9541843, “N‐terminal alterations turn the gut hormone GLP‐2 into an antagonist with gradual loss of GLP‐2 receptor selectivity towards more GLP‐1 receptor interaction” (British Journal of Pharmacology, 2022) are described below.

The target in assay [1] is T1, human GLP‐2R (Homo sapiens, UniProt O95838).
T1 sequence (O95838 1-553): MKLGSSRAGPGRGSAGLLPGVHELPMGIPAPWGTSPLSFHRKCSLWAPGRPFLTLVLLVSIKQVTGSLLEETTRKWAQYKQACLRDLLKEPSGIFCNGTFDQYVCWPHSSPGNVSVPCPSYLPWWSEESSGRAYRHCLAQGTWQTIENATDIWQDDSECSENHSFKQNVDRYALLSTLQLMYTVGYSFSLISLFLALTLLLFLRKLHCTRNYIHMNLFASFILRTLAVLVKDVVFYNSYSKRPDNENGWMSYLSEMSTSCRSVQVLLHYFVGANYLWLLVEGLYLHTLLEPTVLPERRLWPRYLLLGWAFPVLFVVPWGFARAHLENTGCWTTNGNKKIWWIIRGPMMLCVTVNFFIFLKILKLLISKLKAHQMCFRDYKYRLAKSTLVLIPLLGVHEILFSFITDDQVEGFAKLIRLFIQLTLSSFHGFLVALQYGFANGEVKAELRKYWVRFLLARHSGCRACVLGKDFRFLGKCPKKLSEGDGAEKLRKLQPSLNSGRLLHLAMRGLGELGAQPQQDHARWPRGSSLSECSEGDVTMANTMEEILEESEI
The assay can be described thus: cAMP accumulation, inhibition of GLP‐2‐induced activation.

Another assay concerns the target human GLP‐1R (Homo sapiens, UniProt P43220). The assay is described as follows: cAMP accumulation, inhibition of GLP‐1‐mediated response (selectivity). As to conditions: for inhibition at 1 µM: COS-7, read-out: Inhibition of GLP‐1‐mediated cAMP response at the human GLP‐1R.
In assay [2] the target is T1, human GLP‐2R. The assay is described as follows: cAMP accumulation, agonism (HitHunter cAMP assay). Particulars: COS-7, read-out: cAMP activation Emax ± SEM.

Like-named read-outs stand apart in the source and are kept apart here. Peptide text beside a SMILES is read from it. * marks the point of attachment. C16 diacid = O=C(O)CCCCCCCCCCCCCCC(=O)*

Sequence of human GLP‐1R (P43220 24-463): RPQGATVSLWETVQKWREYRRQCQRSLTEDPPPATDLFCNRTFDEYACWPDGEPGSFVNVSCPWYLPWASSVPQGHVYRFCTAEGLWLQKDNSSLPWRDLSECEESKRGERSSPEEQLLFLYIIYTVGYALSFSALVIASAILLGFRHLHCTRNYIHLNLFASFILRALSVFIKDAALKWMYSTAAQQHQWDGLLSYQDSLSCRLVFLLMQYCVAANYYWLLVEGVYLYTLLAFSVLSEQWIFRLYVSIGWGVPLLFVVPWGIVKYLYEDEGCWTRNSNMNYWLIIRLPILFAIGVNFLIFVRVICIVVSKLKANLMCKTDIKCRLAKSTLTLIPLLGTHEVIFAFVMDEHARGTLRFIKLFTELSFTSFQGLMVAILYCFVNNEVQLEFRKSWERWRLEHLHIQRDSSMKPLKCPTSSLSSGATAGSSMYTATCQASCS

On to `CC[C@H](C)[C@H](NC(=O)[C@H](Cc1ccccc1)NC(=O)[C@H](CC(=O)O)NC(=O)[C@H](CCCNC(=N)N)NC(=O)[C@H](C)NC(=O)[C@H](C)NC(=O)[C@H](CC(C)C)NC(=O)[C@H](CC(N)=O)NC(=O)[C@H](CC(=O)O)NC(=O)[C@H](CC(C)C)NC(=O)[C@@H](NC(=O)[C@@H](NC(=O)[C@H](CC(N)=O)NC(=O)[C@H](CCSC)NC(=O)[C@H](CCC(=O)O)NC(=O)[C@H](CC(=O)O)NC(=O)[C@H](CO)NC(=O)[C@H](Cc1ccccc1)NC(=O)[C@H](CO)NC(=O)CNC(=O)[C@H](CC(=O)O)NC(=O)CCCCCCCCCCCCCCC(=O)O)[C@@H](C)O)[C@@H](C)CC)C(=O)N[C@@H](CC(N)=O)C(=O)N[C@@H](Cc1c[nH]c2ccccc12)C(=O)N[C@@H](CC(C)C)C(=O)N[C@H](C(=O)N[C@@H](CCC(N)=O)C(=O)N[C@H](C(=O)N[C@@H](CCCCN)C(=O)N[C@H](C(=O)N[C@H](C(=O)N[C@@H](CC(=O)O)C(=O)O)[C@@H](C)O)[C@@H](C)CC)[C@@H](C)O)[C@@H](C)CC` [GLP‐2(3‐33)(C16‐diacid/3)] ({C16 diacid}-DGSFSDEMNTILDNLAARDFINWLIQTKITD-OH), for which the values for the IC50 against human GLP‐2R [1] and at human GLP‐1R were 7.9 nM and 50 nM, respectively. Also, the “Inhibition of GLP‐2‐induced cAMP at the human GLP‐2R” value at human GLP‐2R [1] (at 1 μM peptide (highest tested concentration), COS‐7 cells) is listed as 87%. Further, the inhibition at 1 µM at human GLP‐1R is 91%. In addition, the Emax on human GLP‐2R [2] was 25%.

Consider `CC[C@H](C)[C@H](NC(=O)[C@H](Cc1ccccc1)NC(=O)[C@H](CC(=O)O)NC(=O)[C@H](CCCNC(=N)N)NC(=O)[C@H](C)NC(=O)[C@H](C)NC(=O)[C@H](CC(C)C)NC(=O)[C@H](CC(N)=O)NC(=O)[C@H](CC(=O)O)NC(=O)[C@H](CC(C)C)NC(=O)[C@@H](NC(=O)[C@@H](NC(=O)[C@H](CC(N)=O)NC(=O)[C@H](CCSC)NC(=O)[C@H](CCC(=O)O)NC(=O)[C@H](CC(=O)O)NC(=O)[C@H](CO)NC(=O)[C@H](Cc1ccccc1)NC(=O)[C@H](CO)NC(=O)CNC(=O)[C@@H](N)CC(=O)O)[C@@H](C)O)[C@@H](C)CC)C(=O)N[C@@H](CC(N)=O)C(=O)N[C@@H](Cc1c[nH]c2ccccc12)C(=O)N[C@@H](CC(C)C)C(=O)N[C@H](C(=O)N[C@@H](CCC(N)=O)C(=O)N[C@H](C(=O)N[C@@H](CCCCN)C(=O)N[C@H](C(=O)N[C@H](C(=O)N[C@@H](CC(=O)O)C(=O)O)[C@@H](C)O)[C@@H](C)CC)[C@@H](C)O)[C@@H](C)CC` [GLP‐2(3‐33)] (H-DGSFSDEMNTILDNLAARDFINWLIQTKITD-OH), for which, at human GLP‐1R, the inhibition at 1 µM lay within 30 to 38%. Moreover, the Emax at human GLP‐2R [2] (SEM) is 21 ± 2.2%.
